Measurements from ChEMBL document CHEMBL1201862, “PubChem BioAssay data set” (2004).
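Dose response: 5 concentrations. Exposure: 48 h. Format: 96-well plates. Endpoint: linear interpolation; highest concentration if not reached. At the GI50, growth is halved.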 The source made the active and inactive calls. Cut-off read from the data, not from the text of the source: active = GI50 up to about 1.1 µM and inactive = higher.

How the values were obtained:
Assay in all cases: inhibition of tumour cell growth, NCI panel, 48 h
CCRF-CEM = test system: CCRF-CEM
SNB-75 = test system: SNB-75
SF-539 = test system: SF-539
HCC 2998 = test system: HCC 2998
A498 = test system: A498
HOP-62 = test system: HOP-62
NCI-H226 = test system: NCI-H226
HL-60 = test system: HL-60
OVCAR-4 = test system: OVCAR-4
SF-268 = test system: SF-268
EKVX = test system: EKVX
RPMI-8226 = test system: RPMI-8226
K562 = test system: K562
TK-10 = test system: TK-10
786-0 = test system: 786-0
UO-31 = test system: UO-31
PC-3 = test system: PC-3
MCF7 = test system: MCF7
NCI/ADR-RES = test system: NCI/ADR-RES
MDA-N = test system: MDA-N

Structure (SMILES) | GI50 (CCRF-CEM) | GI50 (SNB-75) | GI50 (SF-539) | GI50 (HCC 2998) | GI50 (A498) | GI50 (HOP-62) | GI50 (NCI-H226) | GI50 (HL-60) | GI50 (OVCAR-4) | GI50 (SF-268) | GI50 (EKVX) | GI50 (RPMI-8226) | GI50 (K562) | GI50 (TK-10) | GI50 (786-0) | GI50 (UO-31) | GI50 (PC-3) | GI50 (MCF7) | GI50 (NCI/ADR-RES) | GI50 (MDA-N)
COc1ccc(C(=O)CC(=O)C(=O)Nc2ccc(C)c(C)c2)cc1 | 26.5 µM (inactive) | 11.3 µM (inactive) | > 100 µM (inactive) | 97.3 µM (inactive) | > 100 µM (inactive) | > 90.8 µM (inactive) | > 100 µM (inactive) | 10.5 µM (inactive) | 85.5 µM (inactive) | 56.2 µM (inactive) | > 100 µM (inactive) | > 47.5 µM (inactive) | 53.6 µM (inactive) | > 100 µM (inactive) | > 69 µM (inactive) | 98.6 µM (inactive) |  |  |  | 
CC(C)c1ccc(/C=C2/C=C(c3ccc4ccccc4c3)OC2=O)cc1 | 2.56 µM (inactive) | > 74.1 µM (inactive) | > 100 µM (inactive) | > 100 µM (inactive) | > 96.2 µM (inactive) | > 100 µM (inactive) | 73.5 µM (inactive) | 19.4 µM (inactive) | > 100 µM (inactive) | > 100 µM (inactive) | 40 µM (inactive) | 31.3 µM (inactive) | 25.2 µM (inactive) | > 70.3 µM (inactive) | > 100 µM (inactive) | > 76.2 µM (inactive) | 49 µM (inactive) | 88.5 µM (inactive) | 39.5 µM (inactive) | 
CSC1=C(C(=O)Nc2ccc(C)cc2)C(N)=NC1=O | > 100 µM (inactive) | > 100 µM (inactive) | > 100 µM (inactive) | > 100 µM (inactive) |  |  | > 100 µM (inactive) | > 100 µM (inactive) | > 100 µM (inactive) | > 100 µM (inactive) | > 100 µM (inactive) | > 100 µM (inactive) | > 100 µM (inactive) | > 100 µM (inactive) | > 100 µM (inactive) | > 100 µM (inactive) |  | > 100 µM (inactive) | > 100 µM (inactive) | 
O=C(c1ccccc1)c1nnn(Cc2ccccc2Cn2nnc(C(=O)c3ccccc3)c2C(=O)c2ccccc2)c1C(=O)c1ccccc1 | > 100 µM (inactive) | > 100 µM (inactive) | > 100 µM (inactive) | > 100 µM (inactive) | > 100 µM (inactive) | > 100 µM (inactive) | 47.4 µM (inactive) | > 100 µM (inactive) | > 100 µM (inactive) | > 100 µM (inactive) | 47.6 µM (inactive) | > 100 µM (inactive) | > 100 µM (inactive) | > 100 µM (inactive) | > 100 µM (inactive) | > 100 µM (inactive) |  |  |  | 
COc1ccc(-c2c(C3=NCCCN3)nnn2-c2ccc([N+](=O)[O-])cc2)cc1 | > 100 µM (inactive) | > 100 µM (inactive) | > 100 µM (inactive) | > 100 µM (inactive) | > 100 µM (inactive) | > 100 µM (inactive) | > 100 µM (inactive) | > 100 µM (inactive) | > 100 µM (inactive) | > 100 µM (inactive) | > 100 µM (inactive) | > 100 µM (inactive) | > 100 µM (inactive) | > 100 µM (inactive) | > 100 µM (inactive) | > 100 µM (inactive) |  |  |  | 
CCCCCCC(=O)CC(=O)C(=O)Nc1ccccc1C | > 100 µM (inactive) | > 100 µM (inactive) | > 100 µM (inactive) | > 100 µM (inactive) | > 100 µM (inactive) | > 100 µM (inactive) | > 100 µM (inactive) | > 100 µM (inactive) | > 100 µM (inactive) | > 65.6 µM (inactive) | > 100 µM (inactive) | > 100 µM (inactive) | > 100 µM (inactive) | > 100 µM (inactive) | > 55.5 µM (inactive) | > 100 µM (inactive) |  |  |  | 
COc1ccc(-c2c(C3=NCCN3)nnn2-c2ccccc2)cc1 | > 100 µM (inactive) | 98.9 µM (inactive) | > 100 µM (inactive) | > 100 µM (inactive) | > 100 µM (inactive) | > 100 µM (inactive) | > 100 µM (inactive) | 67.3 µM (inactive) | > 100 µM (inactive) | > 100 µM (inactive) | > 100 µM (inactive) | > 100 µM (inactive) | > 100 µM (inactive) | > 100 µM (inactive) | > 100 µM (inactive) | > 100 µM (inactive) |  |  |  | 
Cn1/c(=N\S(=O)(=O)c2ccccc2)[nH]c2ccccc21 | > 100 µM (inactive) | > 100 µM (inactive) | > 100 µM (inactive) | > 100 µM (inactive) | > 100 µM (inactive) |  | > 100 µM (inactive) | > 100 µM (inactive) | > 100 µM (inactive) | 58.6 µM (inactive) | > 100 µM (inactive) | > 100 µM (inactive) | > 100 µM (inactive) | > 100 µM (inactive) | > 100 µM (inactive) | > 100 µM (inactive) |  | > 100 µM (inactive) | 91.8 µM (inactive) | > 100 µM (inactive)
CN(C)/C(=N/C(=S)Nc1ccccc1)SCc1ccccc1 | 11.7 µM (inactive) | 30.3 µM (inactive) | > 100 µM (inactive) | 36.4 µM (inactive) | 83.8 µM (inactive) | 71.6 µM (inactive) | 36.1 µM (inactive) | 18.2 µM (inactive) | 5.47 µM (inactive) | 48.3 µM (inactive) | > 100 µM (inactive) | 10.3 µM (inactive) | 12.3 µM (inactive) | > 100 µM (inactive) | 56.1 µM (inactive) | 22.5 µM (inactive) |  |  |  | 
CC(C)(Oc1ccc(/C=C/C(=O)c2ccccc2)cc1)C(=O)Nc1c(Cl)cccc1Cl | 15 µM (inactive) | > 10 µM (inactive) | > 10 µM (inactive) | > 10 µM (inactive) | 0.524 µM (active) | > 10 µM (inactive) | > 10 µM (inactive) | 14.7 µM (inactive) | > 10 µM (inactive) | > 10 µM (inactive) | > 10 µM (inactive) | > 10 µM (inactive) | 17 µM (inactive) | > 10 µM (inactive) | > 10 µM (inactive) | > 10 µM (inactive) |  |  |  | 
O=S(=O)(O)c1ccc(/N=N/c2ccc(/N=N/c3c(O)ccc4cc(S(=O)(=O)O)ccc34)cc2)cc1 | > 100 µM (inactive) | > 100 µM (inactive) | > 100 µM (inactive) | > 100 µM (inactive) |  | > 100 µM (inactive) | > 100 µM (inactive) | > 100 µM (inactive) |  | > 100 µM (inactive) | > 100 µM (inactive) | > 100 µM (inactive) | > 100 µM (inactive) | > 100 µM (inactive) | > 100 µM (inactive) | 53.3 µM (inactive) | > 100 µM (inactive) | > 100 µM (inactive) | > 100 µM (inactive) | 
CC(=O)Nc1ccc(S(=O)(=O)Nc2nnc(S(N)(=O)=O)s2)cc1 |  | > 100 µM (inactive) | > 100 µM (inactive) | > 100 µM (inactive) | > 100 µM (inactive) |  | > 100 µM (inactive) | > 100 µM (inactive) | > 100 µM (inactive) | > 100 µM (inactive) | > 100 µM (inactive) | > 100 µM (inactive) |  | > 100 µM (inactive) | > 100 µM (inactive) | > 100 µM (inactive) |  | > 100 µM (inactive) | > 100 µM (inactive) | 
